Reference: patent US11351218B2, “Composition for preventing or treating glioblastoma comprising Platycodon grandiflorum A. De Candolle, Scutellaria baicalensis, Phellodendron amurense Ruprecht or Rubus coreanus” (University-Industry Cooperation Group of Kyung Hee …, priority 2019, dated 2022)

What was measured:
LC3B and SQSTM1/p62 = assay: Immunoblot of LC3B and SQSTM1/p62 in GBM cells (U87MG and U373MG); assay type: cell-based, human
Description: FIGS. 2A and 2B show the results that an extract of Platycodon grandiflorum (PG) increases the levels of LC3-II and p62. […] GAPDH was used as a loading control.
FIGS. 3A to 3C show the results that PD inhibits autophagic flux in GBM cells. […] The expression of LC3B and SQSTM1 was confirmed by immunoblot analysis. […] GAPDH was used as a loading control.
The human glioma cell lines, U87MG and U373MG, were cultured respectively in RPMI-1640 (Welgene) and DMEM (Welgene, Daegu, Korea) supplemented with 10% fetal bovine serum (FBS, JR Scientific) and 1% antibiotics (Ab, Welgene). All cultures were maintained at 37° C. in a humidified incubator containing 5% CO2.
(§1) Cells treated with the concentrations and materials described in FIGS. 1-3B, 7, 8, 10, 13, 16, 18, and 20 were lysed in buffer containing 20 mM Tris-HCl (pH 7.5), 150 mM NaCl, 1 mM EDTA, 1 mM Na2EDTA, 1 mM EGTA, 1% NP-40, 1% sodium deoxycholate, 1 mM Na3VO4, 1 mM MPI, 1 mM PMSF, and PI cocktails for 15 to 20 minutes on ice. Cell lysates were separated by SDS-PAGE and transferred to nitrocellulose membranes. Immunodetection was performed with the following primary antibodies: rabbit anti-LC3B, rabbit anti-cathepsin B, rabbit-anti GAPDH (Cell Signaling Technology, Danvers, Mass.), mouse anti-SQSTM1/p62, and goat anti-cathepsin D (Santa CruzKPL, Gaithersburg, Md., USA) were incubated at room temperature for 1 hour. The protein bands were detected with ECL western Blotting Substrate (Thermo Fisher Scientific, Waltham, Mass., USA).

[1] = tested on: PARP, caspase-3, BCL-2 and BAX; assay: Immunoblot of apoptosis markers (PARP, caspase-3, BCL-2, BAX) in GBM cells; assay type: cell-based, human; details: PD, 24 hours
Description: FIGS. 7A and 7B show the results that PD induces non-apoptotic cell death. […] GAPDH was used as a loading control. […] Data shown represent the means of quintuplicate measurements which were repeated three times. The results are presented as a percentage of control (means±SD).
as §1
Therefore, whether PD-mediated autophagy inhibition promotes apoptosis in GBM cells was examined by western blot analysis. Activation of caspase-3 and cleavage of its substrate, PARP, are hallmarks of apoptosis. […]

[2] = tested on: A549, H358, MCF7, HT29 and HepG2 cells; assay: Immunoblot of LC3B and SQSTM1 in several cancer cell lines; assay type: cell-based; details: 24 hours, dose-dependent, all cancer cells tested
Description: After treatment with indicated concentrations of PD or PG for 24 hours, the protein levels of LC3B and SQSTM1 were detected by immunoblot analysis in several cancer cell lines including A549 and H358 (lung cancer), MCF7 (breast cancer), HT29 (colon cancer), and HepG2 (liver cancer). GAPDH was used as a loading control.
as §1
In these studies, they were carried out to examine the accumulation of LC3B-II without checking p62 levels upon PD treatment and conclusions were drawn that PD acts as an inducer of autophagic cell death in these cancer cells. […]

[3] = tested on: p-ULK1 (Ser757), p-S6K (Thr389), p-AKT (Ser473), p-JNK1, Beclin, ATG7; assay: Immunoblot of mTOR/MAPK and autophagosome assembly proteins in GBM cells; assay type: cell-based, human; details: PD 0-10 μM, 24 hours
Description: FIGS. 10A to 10D show the results that PD-mediated autophagy inhibition is independent of mTOR and MAPK signaling pathways. FIGS. 10A to 10C show the results in which cells were treated with PD (0 μM, 0.5 μM, 1 μM, 5 μM, and 10 μM) for 24 hours. The immunoblot analyses for p-ULK1 (Ser757), ULK1, p-S6K (Thr389), p-AKT (Ser473), ERK2, P-ERK, p-JNK1, Beclin, and ATG7 were performed using lysates from GBMs. […] Total protein extracts were analyzed by immunoblot analyses for p-ERK, LC3B, and SQSTM1. GAPDH was used as an internal control.
as §1
Previous studies have shown that PD enhances autophagy via mTOR/MAPK pathway. In order to analyze the molecular mechanisms of PD-mediated autophagy in GBM cells, several regulatory components for autophagy were examined by immunoblot analysis. It is known that mTORC1 activation, measured by S6K phosphorylation, inhibits autophagy initiation by phosphorylating the ULK1 (Ser 757). […] Furthermore, as can be confirmed in FIG. 10A, altered phosphorylation of AKT, which is a positive regulator of mTORC1, was not observed in these cells. […] In order to assess a role of the ERK phosphorylation in autophagy regulation in PD-treated U373MG cells, PD98059, which is a inhibitor of MEK (i.e., an upstream activator of ERK), was added before PD treatment and the changes in LC3-II and p62 levels were examined by western blotting.

cathepsin B and D = assay: Immunoblot of cathepsin B and D processing in GBM cells; assay type: cell-based, human; details: PD 5 μM and 10 μM, 48 hours
Description: Immunoblot analyses for the processing of endogenous CTSB and CTSD are shown (upper, immature form/lower, mature form of CTSB and CTSD). GAPDH was used as a loading control.
as §1
To confirm whether PD functions as an autophagy inhibitor, the effects of PD on lysosomal proteases, cathepsin B and D, were examined Autophagy is a lysosome-mediated and self-degradative process that requires lysosomal cysteine proteases known as cathepsins. Since pro-cathepsins are cleaved into a mature form in lysosomes, the 33 kD active cleaved form of cathepsins has been commonly used as a marker for lysosomal activity. As can be confirmed in FIG. 13, while the mature forms of cathepsin B and D proteins were decreased, immature forms of those protein were increased after PD treatment in U87MG and U373MG cells, implying that PD suppresses a lysosomal function by downregulating the lysosomal proteolytic activity.

C[C@@H]1O[C@@H](O[C@H]2[C@H](OC(=O)[C@]34CCC(C)(C)C[C@H]3C3=CC[C@@H]5[C@@]6(C)C[C@H](O)[C@H](O[C@@H]7O[C@H](CO)[C@@H](O)[C@H](O)[C@H]7O)C(CO)(CO)[C@@H]6CC[C@@]5(C)[C@]3(C)C[C@H]4O)OC[C@H](O)[C@@H]2O)[C@H](O)[C@H](O)[C@H]1O[C@@H]1OC[C@@H](O)[C@H](O[C@@H]2OC[C@](O)(CO)[C@H]2O)[C@H]1O [PD, platycodin D]
LC3B-II and p62 levels over time (LC3B and SQSTM1/p62; 10 μM PD, 3 hours to 24 hours): time-dependent increases | LC3B-II and p62 levels (LC3B and SQSTM1/p62; PD 0 μM to 10 μM, 24 hours): dose-dependent increases | concentration of maximum activity (LC3B-II and p62 levels) (LC3B and SQSTM1/p62; PD 0 μM to 10 μM, 24 hours): 10 µM | caspase-3 activation and PARP cleavage [1]: no significant induction | expressions of Bcl2 and BAX [1]: not changed | level of p62 together with LC3-II [2]: enhanced level | altered phosphorylation of AKT [3]: not observed | phosphorylation levels of JNK vs control cells [3]: no significant difference | phosphorylation of S6K and ULK1 [3]: no alteration | Beclin-1 and ATG7 protein levels ([3]; both cells): no significant changes | immature forms of cathepsin B and D proteins (cathepsin B and D): increased | mature forms of cathepsin B and D proteins (cathepsin B and D): decreased
